Data on one compound can be found in article PMC3592886, “Utilization of Quantitative In Vivo Pharmacology Approaches to Assess Combination Effects of Everolimus and Irinotecan in Mouse Xenograft Models of Colorectal Cancer” (PLoS ONE, 2013).

A short description of data set [1]: Simulation of everolimus plasma concentrations at 5 mg/kg (two-compartment model). Set-up: species or system mice. As to the method: Plasma and tumor pharmacokinetic parameters were calculated by noncompartmental analysis with WinNonlin. Everolimus plasma data was fit to a two-compartment model with first-order absorption and simulations of plasma concentrations at a 5 mg/kg dose of everolimus were performed by SAAM II version 2.1 (The Epsilon Group, Charlottesville, VA/University of Washington).
Everolimus [nmol/g tissue] […]
Everolimus plasma (A) and tumor (B) pharmacokinetics were measured in nude mice bearing HT29 xenografts.
10 (●) mg/kg everolimus daily for 7 days prior to sample collection.
Data represents the average of 3 samples and the lines represent the data fits to a two-compartment model with first-order absorption. The parameter estimates from the fits to the 2.5 and 10 mg/kg data were then used to simulate the steady-state dosing of 5 mg/kg RAD001 (C).
Simulations were generated based on daily dosing. Additional details of the study can be found in the main text.
To simulate data at different concentrations between 2.5 and 10 mg/kg the following assumptions were made; (1) everolimus absorption and its’ elimination from the central compartment is constant across dose levels, and (2) the volume of the central compartment varies linearly between doses. We believe these assumptions are valid since the pharmacokinetics appeared to be linear between 2.5 and 10 mg/kg doses, and the model fits the measured data at 2.5 and 10 mg/kg doses well and agrees with pharmacokinetic parameters estimated by non-compartmental analysis (Table S1). […]

The subject of a further data set is HCT116 cells. In words: In vitro metabolomics, HCT116 cells. The format is cell-based. Particulars: 24 and 96 hours exposure to 30nM RAD001. As to the method:
Metabolomics was performed in vitro on HCT116
(KRAS mt; PIK3CA mt) and HT29 (BRAF mt;
PIK3CA mt) cells after 0 (control), 24 and 96 hours exposure to 30nM RAD001. In both cell lines after 24 and 96 hours glucose uptake was reduced showing a decrease in proliferation. […]

[2] abbreviates: everolimus 5 mg/kg dose in mice.

Consider `CO[C@H]1C[C@@H]2CC[C@@H](C)[C@@](O)(O2)C(=O)C(=O)N2CCCC[C@H]2C(=O)O[C@H]([C@H](C)C[C@@H]2CC[C@@H](OCCO)[C@H](OC)C2)CC(=O)[C@H](C)/C=C(\C)[C@@H](O)[C@@H](OC)C(=O)[C@H](C)C[C@H](C)/C=C/C=C/C=C/1C` [Everolimus, 40-O-(2-hydroxyethyl)-rapamycin], for which the “AUCss,free” value in data set [1] (5 mg/kg in mice, from simulated data) is 37 ng·h/mL. For the same compound, in data set [1] (setting [2]), the “average free concentration (Css,avg)” value is listed as “about 1.5 nM”; the “free plasma concentration, Cmax” value is 6 nM; the “free plasma concentration, Cmin” value is 0.2 nM. In addition, in the data set with HCT116 cells, the glucose uptake entry is given as “reduced”.
